According to US20220195383A1, “METHOD FOR PRODUCING PLURIPOTENT STEM CELLS” (KANEKA CORPORATION, priority 2019, published 2022):

What was measured:
[1] = tested on: WNT3A protein; test: ELISA analysis of WNT3A protein in culture supernatant, suspension culture with IWP-2, line RPChiPS771-2; assay type: cell-based, human; conditions: IWP-2 2 μM, line RPChiPS771-2, day 5 (Example 2)
[2] = tested on: human iPS cell line 201B7; test: Quantitative real-time PCR of marker genes after suspension culture with IWP-2; assay type: cell-based; conditions: IWP-2 2 μM, line 201B7, day 10 (Example 1)
Description: Cells on day 10 of the culture were treated with Accutase for 3 to 10 minutes and dispersed into single cells by pipetting. These cells were lysed using TRIzol™ Reagent (Thermo Fisher Scientific K.K.). Total RNA was isolated and purified from a cell solution obtained by lysing with TRIzol™ Reagent using a PureLink (registered trademark) RNA Mini kit (Thermo Fisher Scientific K.K.). A concentration of the purified RNA was measured using BioSpec-nano (Shimadzu Corporation), and 40 ng was separated. 2 μL of ReverTra Ace (registered trademark) qPCR RT Master Mix (TOYOBO CO., LTD.) and RNase Free dH2O were added to the separated RNA to prepare 10 μL. cDNA synthesis was performed using SimpliAmp Thermal Cycler (Thermo Fisher Scientific K.K.). […] A synthesized cDNA solution was diluted 100-fold with 10 mM Tris-HCl pH 8.0 (NACALAI TESQUE, INC.) and added to a 384-well PCR plate (Thermo Fisher Scientific K.K.) at 5 μL/well. KOD SYBR® qPCR Mix (TOYOBO CO., LTD.), a Forward primer prepared to 50 μM, a Reverse primer prepared to 50 μM, and DEPC-treated water (NACALAI TESQUE, INC.) were mixed at a ratio of 100:1:1:48. This mixed solution was added to the above-mentioned 384-well PCR plate at 15 μL/well and mixed. For the primers, bACT, OCT4, SOX2, Nanog, Brachyury, and SOX17 were used. The 384-well PCR plate was subjected to centrifugal separation to remove air bubbles in the wells, and quantitative real-time PCR analysis was performed using QuantStudio 7 Flex Real-Time PCR System (Thermo Fisher Scientific K.K.).
Suspension culture was performed under a condition in which an amount of WNT protein contained in a unit of a medium in contact with a unit area of a cell surface was maintained at 2.9×10^2 μg/mL·cm^2 or less. Specifically, the human iPS cell line 201B7 maintenance-cultured by the method in Step 1 of Example 1 was treated with Accutase for 3 to 5 minutes to release the cells from the dish. The cells were dispersed into single cells by pipetting. These cells were suspended in a StemFit (registered trademark) AK02N medium containing Y-27632 at a final concentration of 10 μM. A part of the cells was stained with trypan blue to measure the number of living cells. A cell suspension was prepared so that it contained 2×10^5 cells per mL using the StemFit (registered trademark) AK02N medium containing Y-27632 a final concentration of 10 μM. 4 mL of the cell suspension per well was seeded in a 6-well plate for suspension culture (Sumitomo Bakelite Co., Ltd.). IWP-2 (FUJIFILM Wako Pure Chemical Corporation), which is a WNT protein secretion inhibitor, was added to the seeded wells so that a final concentration was 2 μM. The plate in which the cells were seeded was gyrated on a rotary shaker (Optima Instruments) at a speed of 83 rpm so that a gyrating width (diameter) drew a circle of 25 mm along a horizontal plane, and suspension culture was performed at 37° C. in a 5% CO2 environment. The day when the cells were seeded was defined as day 0 of the culture. Passage was performed on day 5 of the culture, and suspension culture was performed until day 10 of the culture. Medium exchange was performed as follows. A total amount of the medium containing cell aggregates was recovered in a centrifuge tube and left to stand for about 5 minutes to precipitate the cell aggregates. Thereafter, the culture supernatant was removed. […]

[3] = tested on: WNT3A protein; test: ELISA analysis of WNT3A protein in culture supernatant, suspension culture with IWP-2, line 201B7; assay type: cell-based, human; conditions: IWP-2 2 μM, line 201B7, day 5 (Example 1)
Description: A reagent and a reaction plate attached to a WNT3A ELISA kit (Aviva Systems Biology Corporation) were returned to room temperature. A vial of WNT3A Standard attached to the kit was subjected to centrifugal separation, and a powder in the vial was collected. After adding 1 mL of a diluent solution attached to the kit and mixing, the mixture was left to stand at room temperature for 15 minutes to prepare a WNT3A solution at a final concentration of 10 ng/mL. Based on the WNT3A solution at a final concentration of 10 ng/mL, the solution was diluted with the diluent solution attached to the kit to create WNT3A solution dilution series at final concentrations of 0.156 ng/mL, 0.313 ng/mL, 0.625 ng/mL, 1.25 ng/mL, 2.5 ng/mL, and 5 ng/mL. The dilution series of 0.156 ng/mL to 10 ng/mL and the culture supernatant on day 5 of the culture were added to the reaction plate at 100 μL/well, and a plate seal was attached. […]
Absorbance was measured at 450 nm (corrected wavelength 540 nm) using SpectraMax i3x Multi-Mode Detection Platform (Molecular Devices, LLC.), and a concentration of the WNT3A protein contained in the medium was calculated. Furthermore, an amount of the WNT3A protein of cells (pg/10^4 cells) was calculated from the results of measuring the number of living cells on day 5 of the culture according to the following equation. […]

[4] = tested on: human iPS cell line RPChiPS771-2; test: Quantitative real-time PCR of marker genes after suspension culture with IWP-2; assay type: cell-based; conditions: IWP-2 2 μM, line RPChiPS771-2, day 10 (Example 2)

Compound: Cc1ccc2nc(NC(=O)CSc3nc4c(c(=O)n3-c3ccccc3)SCC4)sc2c1 [IWP-2]
- Concentration of WNT3A protein contained in medium [1]: 53.3 pg/mL
- Relative gene expression level with respect to ACTB in 2 ^∧ Ct, Nanog [2]: 1.30 × 10^−2
- Relative gene expression level with respect to ACTB in 2 ^∧ Ct, OCT4 [2]: 1.77 × 10^−1
- Relative gene expression level with respect to ACTB in 2 ^∧ Ct, SOX2 [2]: 2.83 × 10^−2
- Relative gene expression level with respect to ACTB in 2 ^∧ Ct, Brachyury ([2]; dash = not detected): not detected
- Relative gene expression level with respect to ACTB in 2 ^∧ Ct, SOX17 ([2]; dash = not detected): not detected
- Amount of WNT3A protein contained in unit of medium in contact with unit area of cell surface, average value (n = 10) [3]: 2.7 × 10^2 μg/mL · cm^2
- Concentration of WNT3A protein contained in medium [3]: 83.9 pg/mL
- Relative gene expression level with respect to ACTB in 2 ^∧ Ct, Nanog [4]: 8.16 × 10^−1
- Relative gene expression level with respect to ACTB in 2 ^∧ Ct, OCT4 [4]: 5.72 × 10^−1
- Relative gene expression level with respect to ACTB in 2 ^∧ Ct, SOX2 [4]: 2.31 × 10^−2
- Relative gene expression level with respect to ACTB in 2 ^∧ Ct, Brachyury ([4]; dash = not detected): not detected
- Relative gene expression level with respect to ACTB in 2 ^∧ Ct, SOX17 ([4]; dash = not detected): not detected
